Measurements published in US20240246964A1 (Arbutus Biopharma Corporation, priority 2021, published 2024).

Biological target: human PD-L1 (Homo sapiens (Human), UniProt Q9NZQ7)
Test: T cell activation luciferase reporter cell culture system (T Cell Activation Assay)
Assay type: cell-based
Settings: luciferase reporter assay; PD-L1 aAPC/CHO-K1 cells with PD-1 effector Jurkat T cells

Chain of human PD-L1 (Q9NZQ7 19-290): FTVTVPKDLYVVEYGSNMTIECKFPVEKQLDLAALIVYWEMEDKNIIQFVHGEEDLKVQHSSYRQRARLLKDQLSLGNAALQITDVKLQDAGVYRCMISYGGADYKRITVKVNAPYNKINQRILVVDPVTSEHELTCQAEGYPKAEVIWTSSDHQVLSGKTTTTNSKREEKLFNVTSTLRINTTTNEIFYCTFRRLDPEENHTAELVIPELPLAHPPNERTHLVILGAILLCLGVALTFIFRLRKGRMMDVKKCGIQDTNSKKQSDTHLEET

EC50 [nM] | Compound
16.4 | COc1nc(-c2cccc(-c3ccnc(-c4ccc(CN5CC6(CNC(=O)C6)C5)c(OC(F)F)c4)c3Cl)c2Cl)ccc1CN1CC2(CNC(=O)C2)C1 [Example 597, 2-((6-(2-Chloro-3-(3-chloro-2-(3-(difluoromethoxy)-4-((7-oxo-2,6-diazaspiro[3.4]octan-2-yl)methyl)phenyl)pyridin-4-yl)phenyl)-2-methoxypyridin-3-yl)methyl)-2,6-diazaspiro[3.4]octan-7-one]
18.3 | COCCC(=O)N1CCC(NCc2ccc(-c3cccc(-c4ccnc(-c5ccc(CNC6CCN(C(C)=O)CC6)c(OC)c5)c4Cl)c3Cl)nc2OC)CC1 [Example 607, 1-(4-(((6-(3-(2-(4-(((1-Acetylpiperidin-4-yl)amino)methyl)-3-methoxyphenyl)-3-chloropyridin-4-yl)-2-chlorophenyl)-2-methoxypyridin-3-yl)methyl)amino)piperidin-1-yl)-3-methoxypropan-1-one]
≥ 10000 | COc1nc(-c2cccc(-c3ccnc(-c4ccc5c(c4)S(=O)(=O)CCN(C[C@H](C)O)C5)c3Cl)c2Cl)ccc1CNC[C@@H]1CCC(=O)N1 [Example 611, (S)-5-((((6-(2-Chloro-3-(3-chloro-2-(4-((S)-2-hydroxypropyl)-1,1-dioxido-2,3,4,5-tetrahydrobenzo[f][1,4]thiazepin-8-yl)pyridin-4-yl)phenyl)-2-methoxypyridin-3-yl)methyl)amino)methyl)pyrrolidin-2-one]
38.9 | COc1nc(-c2cccc(-c3ccnc(-c4ccc(CNC[C@@H]5CCC(=O)N5)c(OC(F)F)c4)c3Cl)c2Cl)ccc1CNC[C@@H]1CCC(=O)N1 [Example 617, (S)-5-((((6-(2-Chloro-3-(3-chloro-2-(3-(difluoromethoxy)-4-(((((S)-5-oxopyrrolidin-2-yl)methyl)amino)methyl)phenyl)pyridin-4-yl)phenyl)-2-methoxypyridin-3-yl)methyl)amino)methyl)pyrrolidin-2-one]
57.7 | COc1nc(-c2cccc(-c3ccnc(-c4ccc(CNC5CCOCC5)c(OC(F)F)c4)c3Cl)c2Cl)ccc1CNC1CCOCC1 [Example 618, N-((6-(2-Chloro-3-(3-chloro-2-(3-(difluoromethoxy)-4-(((tetrahydro-2H-pyran-4-yl)amino)methyl)phenyl)pyridin-4-yl)phenyl)-2-methoxypyridin-3-yl)methyl)tetrahydro-2H-pyran-4-amine]
44.9 | COc1nc(-c2cccc(-c3ccnc(-c4ccc(CNC5CCN(CCO)CC5)c(OC(F)F)c4)c3Cl)c2Cl)ccc1CNC1CCN(CCO)CC1 [Example 620, 2-(4-(((6-(2-Chloro-3-(3-chloro-2-(3-(difluoromethoxy)-4-(((1-(2-hydroxyethyl)piperidin-4-yl)amino)methyl)phenyl)pyridin-4-yl)phenyl)-2-methoxypyridin-3-yl)methyl)amino)piperidin-1-yl)ethan-1-ol]
16.7 | COc1cc(-c2ccnc(-c3cccc(-c4ccc(CNC[C@@H]5CCC(=O)N5)c(OC)n4)c3Cl)c2Cl)ccc1CNC[C@@H]1CCC(=O)N1 [Example 624, (S)-5-(((4-(3-Chloro-2-(2-chloro-3-(6-methoxy-5-(((((S)-5-oxopyrrolidin-2-yl)methyl)-amino)methyl)pyridin-2-yl)phenyl)pyridin-4-yl)-2-methoxybenzyl)-amino)methyl)pyrrolidin-2-one]

Further lines, the compound ahead of its results:

Compound | EC50 [nM]
COc1nc(-c2cccc(-c3ccnc(-c4ccc(CN5CC6(C5)CN(C(C)=O)C6)c(OC(F)F)c4)c3Cl)c2Cl)ccc1CN1CC2(C1)CN(C(C)=O)C2 [Example 598, 1-(6-((6-(3-(2-(4-((6-Acetyl-2,6-diazaspiro[3.3]heptan-2-yl)methyl)-3-(difluoromethoxy)phenyl)-3-chloropyridin-4-yl)-2-chlorophenyl)-2-methoxypyridin-3-yl)methyl)-2,6-diazaspiro[3.3]heptan-2-yl)ethan-1-one] | 36.8
COc1cc(-c2nccc(-c3cccc(-c4ccc(CNC5CC6(COC6)C5)c(OC)n4)c3C(F)(F)F)c2Cl)ccc1CNC1CC2(COC2)C1 (stereo not shown) [Example 604, N-((6-(3-(2-(4-(((2-Oxaspiro[3.3]heptan-6-yl)amino)methyl)-3-methoxyphenyl)-3-chloropyridin-4-yl)-2-(trifluoromethyl)phenyl)-2-methoxypyridin-3-yl)methyl)-2-oxaspiro[3.3]heptan-6-amine] | ≥ 10000
COc1nc(-c2ccnc(-c3cccc4c3CC[C@@H]4Oc3nc(OC)c(CNC4CCOCC4)cc3C(F)(F)F)c2Cl)ccc1CNC[C@@H]1CCC(=O)N1 [Example 608, (S)-5-((((3′-Chloro-6-methoxy-2′-((S)-1-((6-methoxy-5-(((tetrahydro-2H-pyran-4-yl)amino)methyl)-3-(trifluoromethyl)pyridin-2-yl)oxy)-2,3-dihydro-1H-inden-4-yl)-[2,4′-bipyridin]-5-yl)methyl)amino)methyl)pyrrolidin-2-one] | 22.4
COc1cc(-c2nccc(-c3cccc(-c4ccc(CNCCO)c(OC)n4)c3C(F)(F)F)c2Cl)ccc1CNCCO [Example 612, 2-(((6-(3-(3-Chloro-2-(4-(((2-hydroxyethyl)amino)methyl)-3-methoxyphenyl)pyridin-4-yl)-2-(trifluoromethyl)phenyl)-2-methoxypyridin-3-yl)methyl)amino)ethan-1-ol] | ≥ 10000
CNCc1ccc(-c2nccc(-c3cccc(-c4ccc(CNC)c(OC)n4)c3C(F)(F)F)c2Cl)cc1OC [Example 613, 1-(6-(3-(3-Chloro-2-(3-methoxy-4-((methylamino)methyl)phenyl)pyridin-4-yl)-2-(trifluoromethyl)phenyl)-2-methoxypyridin-3-yl)-N-methylmethanamine] | ≥ 10000
COCCNCc1ccc(-c2nccc(-c3cccc(-c4ccc(CNCCOC)c(OC)n4)c3C(F)(F)F)c2Cl)cc1OC [Example 614, N-((6-(3-(3-Chloro-2-(3-methoxy-4-(((2-methoxyethyl)amino)methyl)phenyl)pyridin-4-yl)-2-(trifluoromethyl)phenyl)-2-methoxypyridin-3-yl)methyl)-2-methoxyethan-1-amine] | ≥ 10000
COCCC(=O)N1CCC(NCc2ccc(-c3cccc(-c4ccnc(-c5ccc(CN6CCC(O)CC6)c(OC)c5)c4Cl)c3Cl)nc2OC)CC1 [Example 616, 1-(4-(((6-(2-Chloro-3-(3-chloro-2-(4-((4-hydroxypiperidin-1-yl)methyl)-3-methoxyphenyl)pyridin-4-yl)phenyl)-2-methoxypyridin-3-yl)methyl)amino)piperidin-1-yl)-3-methoxypropan-1-one] | 36
COc1cc(-c2ccnc(-c3cccc(-c4ccc(CN5CC6(CNC(=O)C6)C5)c(OC)n4)c3Cl)c2Cl)ccc1CN1CC2(CNC(=O)C2)C1 [Example 622, 2-(4-(3-Chloro-2-(2-chloro-3-(6-methoxy-5-((7-oxo-2,6-diazaspiro[3.4]octan-2-yl)methyl)pyridin-2-yl)phenyl)pyridin-4-yl)-2-methoxybenzyl)-2,6-diazaspiro[3.4]octan-7-one] | 216
COc1cc(-c2ccnc(-c3cccc(-c4ccc(CNC5CCOCC5)c(OC)n4)c3Cl)c2Cl)ccc1CNC1CCOCC1 [Example 623, N-(4-(3-Chloro-2-(2-chloro-3-(6-methoxy-5-(((tetrahydro-2H-pyran-4-yl)amino)methyl)pyridin-2-yl)phenyl)pyridin-4-yl)-2-methoxybenzyl)tetrahydro-2H-pyran-4-amine] | 222
COCCC(=O)N1CCC(NCc2ccc(-c3cccc(-c4ccnc(-c5ccc(CN6CC7(CNC(=O)C7)C6)c(OC)c5)c4Cl)c3Cl)nc2OC)CC1 [Example 625, 2-(4-(3-Chloro-4-(2-chloro-3-(6-methoxy-5-(((1-(3-methoxypropanoyl)piperidin-4-yl)amino)methyl)pyridin-2-yl)phenyl)pyridin-2-yl)-2-methoxybenzyl)-2,6-diazaspiro[3.4]octan-7-one] | 20.8
COc1cc(-c2ncnc(-c3cccc(-c4ccc(CNC5CCOCC5)c(OC)n4)c3Cl)c2Cl)ccc1CNC1CCOCC1 [Example 626, N-((6-(2-Chloro-3-(5-chloro-6-(3-methoxy-4-(((tetrahydro-2H-pyran-4-yl)amino)methyl)phenyl)pyrimidin-4-yl)phenyl)-2-methoxypyridin-3-yl)methyl)tetrahydro-2H-pyran-4-amine] | 79
COCCC(=O)N1CCC(NCc2ccc(-c3cccc(-c4ccnc(-c5ccc(CN6CC7(C6)CN(C(C)=O)C7)c(OC)c5)c4Cl)c3Cl)nc2OC)CC1 [Example 631, 1-(4-(((6-(3-(2-(4-((6-Acetyl-2,6-diazaspiro[3.3]heptan-2-yl)methyl)-3-methoxyphenyl)-3-chloropyridin-4-yl)-2-chlorophenyl)-2-methoxypyridin-3-yl)methyl)amino)piperidin-1-yl)-3-methoxypropan-1-one] | 37.7
COCCC(=O)N1CCC(NCc2ccc(-c3cccc(-c4ccnc(-c5ccc(CNC[C@H](C)O)c(OC)c5)c4Cl)c3Cl)nc2OC)CC1 [Example 632, (S)-1-(4-(((6-(2-Chloro-3-(3-chloro-2-(4-(((2-hydroxypropyl)amino)methyl)-3-methoxyphenyl)pyridin-4-yl)phenyl)-2-methoxypyridin-3-yl)methyl)amino)piperidin-1-yl)-3-methoxypropan-1-one] | 41.2
COc1nc(-c2ccnc(-c3cccc4c3CC[C@@H]4Nc3nc(OC)c(CNC4CCN(C(C)=O)CC4)cc3C(F)(F)F)c2Cl)ccc1CNC[C@@H]1CCC(=O)N1 [Example 633, (S)-5-((((2′-((S)-1-((5-(((1-Acetylpiperidin-4-yl)amino)methyl)-6-methoxy-3-(trifluoromethyl)pyridin-2-yl)amino)-2,3-dihydro-1H-inden-4-yl)-3′-chloro-6-methoxy-[2,4′-bipyridin]-5-yl)methyl)amino)methyl)pyrrolidin-2-one] | 121
COc1nc(-c2ccnc(-c3cccc4c3CC[C@@H]4Nc3nc(OC)c(CNC4CCOCC4)cc3C(F)(F)F)c2Cl)ccc1CNC[C@@H]1CCC(=O)N1 [Example 634, (S)-5-((((3′-Chloro-6-methoxy-2′-((S)-1-((6-methoxy-5-(((tetrahydro-2H-pyran-4-yl)amino)methyl)-3-(trifluoromethyl)pyridin-2-yl)amino)-2,3-dihydro-1H-inden-4-yl)-[2,4′-bipyridin]-5-yl)methyl)amino)methyl)pyrrolidin-2-one] | 110
